Legend:
Type in all cases: cell-based, human
U87MG and U373MG cells [1] = assay: Cell morphology (vacuole formation) under optical microscope, GBM cells; conditions: 10 μM PD, 24 hours
Procedure: FIGS. 6A and 6B show the results that PD induces a decrease in cell viability and vacuole formation. […] Data shown represent the means of quintuplicate measurements which were repeated three times. The results are presented as a percentage of control (means±SD).
Inhibition of autophagy has been reported to cause cancer cell death. Therefore, the cytotoxic effects of PD on U87MG, U373MG, and normal astrocytes were examined. After treating these cells with various doses of PD for 48 hours, their cell viability was analyzed by WST1 assays. […] As can be confirmed in FIG. 6B, morphological changes were also visualized by an optical microscope after exposure of GBM cells to 10 μM PD for 24 hours.

SQSTM1 mRNA = assay: RT-PCR of SQSTM1 (p62) mRNA in GBM cells; conditions: PD 5 μM and 10 μM, 24 hours, both GBM cells
Procedure: FIGS. 3A to 3C show the results that PD inhibits autophagic flux in GBM cells. […] The expression of LC3B and SQSTM1 was confirmed by immunoblot analysis. […] GAPDH was used as a loading control.
Total RNA was isolated using the Easy-Blue RNA extraction kit (iNtRON Biotech, Sungnam, Korea) according to the manufacturer's directions. 1 μg of the total RNA was reverse transcribed using a cDNA synthesis kit (TaKaRa, Otsu, Shinga, Japan) according to the manufacturer's instructions. The obtained cDNA was then amplified by PCR in a reaction mixture consisting of 10× Taq buffer, 2.5 mM dNTP mixture, Taq DNA polymerase (Takara), and corresponding primer sets. The primer sequences were as follows. Human SQSTM1-forward: 5′-GAACTCCAGTCCCTACAGATGCC-3′ (SEQ ID NO: 1), SQSTM1-reverse: 5′-CGGGAGATGTGGGTACAAGG 2-3′ (SEQ ID NO: 2); Human LDLR-forward: 5′-CAG ATA TCA TCA ACG AAG C-3′ (SEQ ID NO: 3), LDLR-reverse: 5′-CCTCTCACACCAGTTCACTCC-3′ (SEQ ID NO: 4); Human GAPDH-forward: 5′-CGTCTTCACCACCATGGAGA-3′ (SEQ ID NO: 5), GAPDH—reverse: 5′-CGGCCATCACGCCACAGTTT-3′ (SEQ ID NO: 6). The PCR products were analyzed by 1.5% agarose gels.

LDLR = assay: Immunoblot of LDLR in U87MG, U373MG cells and normal astrocytes; conditions: 24 hours
Procedure: FIGS. 16A to 16D show the results that PD increases the expression of LDLR on cell surfaces in GBM cells. […] GAPDH was used as a loading control. […] GAPDH was used as a loading control.
Cells treated with the concentrations and materials described in FIGS. 1-3B, 7, 8, 10, 13, 16, 18, and 20 were lysed in buffer containing 20 mM Tris-HCl (pH 7.5), 150 mM NaCl, 1 mM EDTA, 1 mM Na2EDTA, 1 mM EGTA, 1% NP-40, 1% sodium deoxycholate, 1 mM Na3VO4, 1 mM MPI, 1 mM PMSF, and PI cocktails for 15 to 20 minutes on ice. Cell lysates were separated by SDS-PAGE and transferred to nitrocellulose membranes. Immunodetection was performed with the following primary antibodies: rabbit anti-LC3B, rabbit anti-cathepsin B, rabbit-anti GAPDH (Cell Signaling Technology, Danvers, Mass.), mouse anti-SQSTM1/p62, and goat anti-cathepsin D (Santa CruzKPL, Gaithersburg, Md., USA) were incubated at room temperature for 1 hour. The protein bands were detected with ECL western Blotting Substrate (Thermo Fisher Scientific, Waltham, Mass., USA).
Brain is the most cholesterol-rich organ of the body, containing about 20% of total body cholesterol. […] As can be confirmed in FIG. 16A, in consistent with these reports, the LDLR protein level was markedly elevated in U87MG and U373MG cells relative to normal human astrocytes. […] Then, the cell surface expression of LDLR was confirmed by flow cytometry.

U87MG and U373MG cells [2] = assay: mRFP-GFP-LC3 tandem reporter (autolysosome formation) in GBM cells; conditions: PD 10 μM or Rapa 1 μM, 24 hours
Procedure: Cells stably expressing mRFP-GFP-LC3 were incubated with PD (10 μM) or Rapa (1 μM) for 24 hours, and then analyzed by confocal microscopy. The merged images (yellow) show an overlap between GFP-LC3 (green) and mRFP-LC3 (red). The panels on the right are higher-magnification images of the boxed regions.
In order to examine whether PD induces accumulation of autophagosomes by inhibiting their maturation into autolysosomes, a tandem-tagged fluorescent reporter, mRFP-GFP-LC3, was used. The GFP fluorescence of the fusion protein is rapidly quenched in lysosomal acidic conditions, whereas the RFP fluorescence is relatively stable. The yellow dots in the merged image are indicative of autophagsomes and […] dots correspond to autolysosomes. The mRFP-GFP-LC3 plasmids were transfected into U87MG and U373MG cells, treated with PD for 24 hours, and subjected to confocal microscopy.

U87MG cells = assay: GFP-LC3B puncta assay (confocal microscopy), U87MG cells; conditions: 10 μM PD, 24 hours
Procedure: The cells transiently expressing GFP-LC3 (green) were treated with DMSO or PD (10 μM) for 24 hours and analyzed by confocal microscopy. Nuclei were stained with DAPI (blue). Quantification shown on the right graph represents mean GFP-LC3B puncta per cells from three independent experiments±SD.
Cultured cells seeded in plates with microscope coverslips were transfected with a pGFP-LC3B plasmid using Lipofectamine 3000 (Thermo Fisher Scientific) according to the manufacturer's instructions. After the transfection, the cells were fixed with 4% paraformaldehyde (PFA) in phosphate-buffered saline (PBS) at room temperature for 10 minutes. The images were examined under a laser confocal microscope (Zeiss, Oberkochen, Baden-Wurttemberg, Germany).
To confirm the western blot data, the LC3B accumulation in GBM cells was monitored using a confocal microscope. Both U87MG and U373MG cells transfected with a green fluorescent protein (GFP)-tagged LC3 expression plasmid were treated with 10 μM PD for 24 hours and examined under a confocal microscope.

With `C[C@@H]1O[C@@H](O[C@H]2[C@H](OC(=O)[C@]34CCC(C)(C)C[C@H]3C3=CC[C@@H]5[C@@]6(C)C[C@H](O)[C@H](O[C@@H]7O[C@H](CO)[C@@H](O)[C@H](O)[C@H]7O)C(CO)(CO)[C@@H]6CC[C@@]5(C)[C@]3(C)C[C@H]4O)OC[C@H](O)[C@@H]2O)[C@H](O)[C@H](O)[C@H]1O[C@@H]1OC[C@@H](O)[C@H](O[C@@H]2OC[C@](O)(CO)[C@H]2O)[C@H]1O` [PD, platycodin D] the “cell morphology (cytoplasmic vacuoles)” value (U87MG and U373MG cells [1]) was “exhibited cytoplasmic vacuoles”, the “p62 mRNA levels” value (SQSTM1 mRNA) was “did not alter” and the LDLR expression (LDLR; PD 5 μM and 10 μM or U18666a 1 μM, U87MG, U373MG and normal astrocytes) was “significantly increased”. The “degree of LDLR expression, GBM cells vs normal astrocytes” value (LDLR; PD 5 μM and 10 μM) was “more prominent in GBM cells than in normal astrocytes”, the “mRFP and GFP dots of mRFP-GFP-LC3” value (U87MG and U373MG cells [2]) was “GFP-positive dots were retained and colocalized with mRFP dots” and the “fold increase of GFP-LC3 puncta per cell vs DMSO” value (U87MG cells) was 10.1 fold. The “GFP-LC3 puncta per cell” value (U87MG cells; mean±SD) was 38.03±5.75.

Reference: patent publication US11351218B2, “Composition for preventing or treating glioblastoma comprising Platycodon grandiflorum A. De Candolle, Scutellaria baicalensis, Phellodendron amurense Ruprecht or Rubus coreanus” (University-Industry Cooperation Group of Kyung Hee …, priority 2019, dated 2022)
